Molecules are shown by their SMILES.

The target in the experiment is SMYD2 (Homo sapiens (Human), UniProt Q9NRG4). As to the kind of experiment: SMYD2 biochemical assay (SMYD2 enzyme assay on peptide substrate, 3H-SAM Flashplate). The conditions noted are these: read-out: SMYD2 Biochem IC50; IC50 values are an average of n = 1 to n = 50.
SMYD2, sequence (Q9NRG4 whole entry): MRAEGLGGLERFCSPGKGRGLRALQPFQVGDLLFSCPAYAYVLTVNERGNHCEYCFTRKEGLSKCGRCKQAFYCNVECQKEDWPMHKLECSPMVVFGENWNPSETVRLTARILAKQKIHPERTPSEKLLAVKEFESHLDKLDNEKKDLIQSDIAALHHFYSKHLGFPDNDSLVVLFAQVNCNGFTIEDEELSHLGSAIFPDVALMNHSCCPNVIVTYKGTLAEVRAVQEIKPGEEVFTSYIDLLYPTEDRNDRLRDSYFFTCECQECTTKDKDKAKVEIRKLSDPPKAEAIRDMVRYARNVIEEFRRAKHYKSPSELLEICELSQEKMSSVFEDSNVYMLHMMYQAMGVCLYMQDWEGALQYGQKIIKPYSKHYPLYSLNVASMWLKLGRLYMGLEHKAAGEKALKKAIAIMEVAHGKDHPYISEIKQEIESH
From the text: S-adenosylmethionine (SAM), S-adenosylhomocysteine (SAH), bicine, Tween20, dimethylsulfoxide (DMSO), bovine skin gelatin (BSG), and Tris(2-carboxyethyl)phosphine hydrochloride (TCEP) were purchased from Sigma-Aldrich at the highest level of purity possible. ^3H-SAM was purchase from American Radiolabeled Chemicals with a specific activity of 80 Ci/mmol. 384-well streptavidin Flashplates were purchased from PerkinElmer.
The sequence was [sequence](K-Biot)-amide.
Production of Recombinant SMYD2 Enzymes for Biochemical Enzyme Activity Assays
Full length SMYD2 (NP_064582.2) was cloned into a pFastbac-Htb-lic vector with an N-terminal His6 tag and FLAG tag, preceded by a TEV protease cleavage site. The protein was expressed in Sf9 insect cells. Cells were resuspended in lysis buffer (25 mM HEPES-NaOH, pH 7.5, 200 mM NaCl, 5% glycerol, and 5 mM (3-ME) and lysed by sonication. The protein was purified by Ni-NTA (Qiagen), followed by TEV cleavage to remove the His6 tag, subtractive Ni-NTA (Qiagen), and gel filtration chromatography using an S200 column (GE Healthcare). Purified protein was stored in 20 mM Tris-HCl, pH 8.0, 100 mM NaCl, and 1 mM TCEP.
General Procedure for SMYD2 Enzyme Assays on Peptide Substrates
The assays were all performed in a buffer consisting of 20 mM Bicine (pH=7.6), 1 mM TCEP, 0.005% Bovine Skin Gelatin, and 0.002% Tween20, prepared on the day of use. […] DMSO (1 ul) was added to Columns 11, 12, 23, 24, rows A-H for the maximum signal control and 1 ul of SAH, a known product and inhibitor of SMYD2, was added to columns 11, 12, 23, 24, rows I-P for the minimum signal control. A cocktail (40 ul) containing the SMYD2 enzyme was added by Multidrop Combi (Thermo-Fisher). The compounds were allowed to incubate with SMYD2 for 30 min at room temperature, then a cocktail (10 ul) containing ^3H-SAM and peptide was added to initiate the reaction (final volume=51 ul). […] The assays were stopped by the addition of non-radioactive SAM (10 ul) to a final concentration of 600 uM, which dilutes the ^3H-SAM to a level where its incorporation into the peptide substrate is no longer detectable. 50 ul of the reaction in the 384-well polypropylene plate was then transferred to a 384-well Flashplate and the biotinylated peptides were allowed to bind to the streptavidin surface for at least 1 hour before being washed three times with 0.1% Tween20 in a Biotek ELx405 plate washer. The plates were then read in a PerkinElmer TopCount plate reader to measure the quantity of ^3H-labeled peptide bound to the Flashplate surface, measured as disintegrations per minute (dpm) or alternatively, referred to as counts per minute (cpm).
Where dpm=disintegrations per minute, cmpd=signal in assay well, and min and max are the respective minimum and maximum signal controls.
Where top and bottom are the normally allowed to float, but may be fixed at 100 or 0 respectively in a 3-parameter fit. The Hill Coefficient normally allowed to float but may also be fixed at 1 in a 3-parameter fit. I is the compound concentration.
With `Cc1nc(C)c(C(C)N2CC(NC(=O)c3cn(C4CC4)nn3)C2)s1` (centres unmarked) [compound 718, 1-cyclopropyl-N-{1-[1-(dimethyl-1,3-thiazol-5-yl)ethyl]azetidin-3-yl}-1H-1,2,3-triazole-4-carboxamide], the IC50 (commonly the concentration that gives 50% inhibition) amounted to 2.95 µM. For the compound `O=C(NC1CN(C2CCc3cc(Cl)ccc32)C1)c1cn(C2CC2)nn1` (centres unmarked) [compound 719, N-[1-(5-chloro-2,3-dihydro-1H-inden-1-yl)azetidin-3-yl]-1-cyclopropyl-1H-1,2,3-triazole-4-carboxamide], the IC50 was found to be 4.41 µM. `C[C@H](c1ccccc1)N1CC(NC(=O)c2cn(C3CC3)nn2)C1` [compound 720, 1-cyclopropyl-N-{1-[(1R)-1-phenylethyl]azetidin-3-yl}-1H-1,2,3-triazole-4-carboxamide]: the 50% inhibitory concentration (IC50) came to 23.3 µM. In the case of `CC(C)N1CC(NC(=O)c2cn(CCN)nn2)C1` [compound 723, 1-(2-aminoethyl)-N-[1-(propan-2-yl)azetidin-3-yl]-1H-1,2,3-triazole-4-carboxamide], the IC50 was over 50 µM. Regarding `COc1ccnc(C(C)N2CC(NC(=O)c3cn(C4CC4)nn3)C2)c1` (centres unmarked) [compound 724, 1-cyclopropyl-N-{1-[1-(4-methoxypyridin-2-yl)ethyl]azetidin-3-yl}-1H-1,2,3-triazole-4-carboxamide], the IC50 was 1.27 µM.

`COc1cccnc1C(C)N1CC(NC(=O)c2cn(C3CC3)nn2)C1` (centres unmarked) [compound 725, 1-cyclopropyl-N-{1-[1-(3-methoxypyridin-2-yl)ethyl]azetidin-3-yl}-1H-1,2,3-triazole-4-carboxamide]: the IC50 came to 1.02 µM. Consider `CNC(=O)c1cccc(CN2CC(NC(=O)c3cn(C4CC4)nn3)C2)c1` [compound 726, 1-cyclopropyl-N-(1-{[3-(methylcarbamoyl)phenyl]methyl}azetidin-3-yl)-1H-1,2,3-triazole-4-carboxamide], for which the IC50 was determined as 10.7 µM. On to `NC(=O)c1cccc(CN2CC(NC(=O)c3cn(C4CC4)nn3)C2)c1` [compound 727, N-{1-[(3-carbamoylphenyl)methyl]azetidin-3-yl}-1-cyclopropyl-1H-1,2,3-triazole-4-carboxamide], for which the IC50 is 7.3 µM.

For `CC(c1ccc(N2CCOCC2)cc1)N1CC(NC(=O)c2cn(C3CC3)nn2)C1` (centres unmarked) [compound 728, 1-cyclopropyl-N-(1-{1-[4-(morpholin-4-yl)phenyl]ethyl}azetidin-3-yl)-1H-1,2,3-triazole-4-carboxamide], the IC50 stood at 0.755 µM. On to `COc1cccc(C(N2CC(NC(=O)c3cn(C4CC4)nn3)C2)C(F)(F)F)c1` (centres unmarked) [compound 729, 1-cyclopropyl-N-{1-[2,2,2-trifluoro-1-(3-methoxyphenyl)ethyl]azetidin-3-yl}-1H-1,2,3-triazole-4-carboxamide], for which the IC50 was over 50 µM. Consider `CC(c1cccc(Oc2ccccc2)c1)N1CC(NC(=O)c2cn(C3CC3)nn2)C1` (centres unmarked) [compound 730, 1-cyclopropyl-N-{1-[1-(3-phenoxyphenyl)ethyl]azetidin-3-yl}-1H-1,2,3-triazole-4-carboxamide], for which the IC50 was 3.04 µM. With `O=C(NC1CN(C(c2ccccc2)C2CCC2)C1)c1cn(C2CC2)nn1` (centres unmarked) [compound 731, N-{1-[cyclobutyl(phenyl)methyl]azetidin-3-yl}-1-cyclopropyl-1H-1,2,3-triazole-4-carboxamide] the figure was 1.52 µM; with `COc1cc(C(C)N2CC(NC(=O)c3cn(C4CC4)nn3)C2)ccc1F` (centres unmarked) [compound 732, 1-cyclopropyl-N-{1-[1-(4-fluoro-3-methoxyphenyl)ethyl]azetidin-3-yl}-1H-1,2,3-triazole-4-carboxamide], 2.59 µM; with `Cn1cnc(CN2CC(NC(=O)c3cn(C4CC4)nn3)C2)c1` [compound 733, 1-cyclopropyl-N-{1-[(1-methyl-1H-imidazol-4-yl)methyl]azetidin-3-yl}-1H-1,2,3-triazole-4-carboxamide], 6.8 µM. For the compound `O=C(NC1CN(Cc2cccc(OCCO)c2)C1)c1cn(C2CC2)nn1` [compound 734, 1-cyclopropyl-N-(1-{[3-(2-hydroxyethoxy)phenyl]methyl}azetidin-3-yl)-1H-1,2,3-triazole-4-carboxamide], the concentration for half-maximal inhibition (IC50) came to 2.31 µM. For `CNCCOc1cccc(CN2CC(NC(=O)c3cn(C4CC4)nn3)C2)c1` [compound 735, 1-cyclopropyl-N-[1-({3-[2-(methylamino)ethoxy]phenyl}methyl)azetidin-3-yl]-1H-1,2,3-triazole-4-carboxamide], the IC50 was found to be 2.33 µM.

Regarding `CC(c1cccc(OCc2ccccc2)c1)N1CC(NC(=O)c2cn(C3CC3)nn2)C1` (centres unmarked) [compound 737, N-(1-{1-[3-(benzyloxy)phenyl]ethyl}azetidin-3-yl)-1-cyclopropyl-1H-1,2,3-triazole-4-carboxamide], the IC50 is 0.718 µM. For `CC(c1ccc(Oc2ccccc2)cc1)N1CC(NC(=O)c2cn(C3CC3)nn2)C1` (centres unmarked) [compound 739, 1-cyclopropyl-N-{1-[1-(4-phenoxyphenyl)ethyl]azetidin-3-yl}-1H-1,2,3-triazole-4-carboxamide], the IC50 was 1.07 µM. As to `O=C(NC1CN(C2CCc3cc(F)ccc32)C1)c1cn(C2CC2)nn1` (centres unmarked) [compound 740, 1-cyclopropyl-N-[1-(5-fluoro-2,3-dihydro-1H-inden-1-yl)azetidin-3-yl]-1H-1,2,3-triazole-4-carboxamide], the 50% inhibitory concentration (IC50) worked out at 6.96 µM.

For the compound `CC(c1ccccc1C(F)(F)F)N1CC(NC(=O)c2cn(C3CC3)nn2)C1` (centres unmarked) [compound 741, 1-cyclopropyl-N-(1-{1-[2-(trifluoromethyl)phenyl]ethyl}azetidin-3-yl)-1H-1,2,3-triazole-4-carboxamide], the IC50 is 1.01 µM.

Turning to `CC(c1c(F)cccc1F)N1CC(NC(=O)c2cn(C3CC3)nn2)C1` (centres unmarked) [compound 742, 1-cyclopropyl-N-{1-[1-(2,6-difluorophenyl)ethyl]azetidin-3-yl}-1H-1,2,3-triazole-4-carboxamide], the concentration for half-maximal inhibition (IC50) turned out to be 2.85 µM. Turning to `CC(c1cccc(Cl)c1Cl)N1CC(NC(=O)c2cn(C3CC3)nn2)C1` (centres unmarked) [compound 743, 1-cyclopropyl-N-{1-[1-(2,3-dichlorophenyl)ethyl]azetidin-3-yl}-1H-1,2,3-triazole-4-carboxamide], the IC50 is 0.488 µM. For `CC(c1cnccn1)N1CC(NC(=O)c2cn(C3CC3)nn2)C1` (centres unmarked) [compound 745, 1-cyclopropyl-N-{1-[1-(pyrazin-2-yl)ethyl]azetidin-3-yl}-1H-1,2,3-triazole-4-carboxamide], the IC50 was determined as 7.44 µM. `CC(c1cc(F)ccc1F)N1CC(NC(=O)c2cn(C3CC3)nn2)C1` (centres unmarked) [compound 746, 1-cyclopropyl-N-{1-[1-(2,5-difluorophenyl)ethyl]azetidin-3-yl}-1H-1,2,3-triazole-4-carboxamide]: the IC50 is 7.78 µM. `CC(c1ccc(F)cc1)N1CC(NC(=O)c2cn(C3CC3)nn2)C1` (centres unmarked) [compound 747, 1-cyclopropyl-N-{1-[1-(4-fluorophenyl)ethyl]azetidin-3-yl}-1H-1,2,3-triazole-4-carboxamide]: the IC50 was 1.92 µM. On to `COc1ccc(C(N2CC(NC(=O)c3cn(C4CC4)nn3)C2)C(F)(F)F)cc1` (centres unmarked) [compound 749, 1-cyclopropyl-N-{1-[2,2,2-trifluoro-1-(4-methoxyphenyl)ethyl]azetidin-3-yl}-1H-1,2,3-triazole-4-carboxamide], for which the IC50 stood at 0.565 µM.
